# Test results from US20230165831A1, “METHOD AND COMPOSITION FOR RENDERING CANCER CELLS SUSCEPTIBLE TO TREATMENT BY TARGETED ONCOGENETIC DRIVERS” (IMPACT BIOLIFE SCIENCE, INC., priority 2021, published 2023).
# What was measured:
# [1] = tested on: pancreatic cancer line Capan-1 cells; assay: CTG (CellTiter-Glo) cell viability assay, 6×6 combo matrix, 72 h, Capan-1; format: cell-based; conditions: for Relatively Cell inhibition of vehicle control(%): Capan-1
# Method: To measure the cell inhibition effect of compounds and synergy effect of test articles on ten (10) cell lines using standard CTG assay.
# b. A549, T47D, SK-OV-3, MKN45, SK-Hep-1, HT-29, Capan-1, 786-O and LNCaP cell line, for compounds and vehicle groups, the seeding density of cell lines is 3000 cells/80 µL per well. For blank groups, add 100 µL medium. For PBS groups, add 100 µL PBS.
# 8) Incubate the U87MG, A549, T47D, SK-OV-3, MKN45, SK-Hep-1, HT-29, Capan-1, 786-O and LNCaP cells overnight at 37° C./5% CO2.
# 5) Incubate the plates at 37° C./5% CO2 for 72 hours.
# 6) Read plates in Envision.
# [2] = tested on: breast cancer line T47D cells; assay: CTG (CellTiter-Glo) cell viability assay, 6×6 combo matrix, 72 h, T47D;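 also: luminescence read-out after 72 h at 37 °C under 5% CO2, with medium-only wells as blanks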
# Method: (§1) 7) Using complete cell medium, adjust the volume of the suspension to achieve a cell concentration.
# (§2) Solid compound of cis-platinum was solubilized in PBS to a stock solution of 3.333 mM.
# (§3) Final volume is 100 µL per well at this point.
# (§4) 1) Incubate the plates at room temperature and away from light for 30 minutes.
# (§5) 3) Add 100 µL /well of CellTiter-Glo® Reagent in each well. Avoid light.
# (§6) 4) Mix contents for 2 minutes on an orbital shaker.
# (§7) 5) Incubate plate at room temperature for 10 minutes to stabilize the luminescent signal.
# [3] = tested on: colorectal cancer line HT29 cells; assay: CTG (CellTiter-Glo) cell viability assay, 6×6 combo matrix, 72 h, HT29; conditions: HT29;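 also: cells exposed to compounds for 72 hours at 37 °C under 5% CO2, then viability read as luminescence after adding CellTiter-Glo Reagent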
# Method: as §1, §2, §3, §4, §5, §6, §7
# [4] = tested on: lung adenocarcinoma line A549 cells; assay: CTG (CellTiter-Glo) cell viability assay, 6×6 combo matrix, 72 h, A549; conditions: A549;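 also: luminescent ATP readout with CellTiter-Glo after compound exposure, used to assess growth inhibition and combination synergy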
# [5] = tested on: glioblastoma line U87MG cells; assay: CTG (CellTiter-Glo) cell viability assay, 6×6 combo matrix, 72 h, U87MG;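 also: U87MG cells seeded at 2000 per well, exposed 72 h, viability read by CellTiter-Glo luminescence, inhibition expressed relative to vehicle-treated wells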
# [6] = tested on: prostate adenocarcinoma line LNCap cells; assay: CTG (CellTiter-Glo) cell viability assay, 6×6 combo matrix, 72 h, LNCaP;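 also: luminescence signal read after adding CellTiter-Glo reagent, with cells exposed to compounds for 72 h at 37 °C under 5% CO2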
# [7] = tested on: gastric cancer line MKN45 cells; assay: CTG (CellTiter-Glo) cell viability assay, 6×6 combo matrix, 72 h, MKN45;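 also: MKN45 cell viability read as CellTiter-Glo luminescence after 72 h culture at 37 °C under 5% CO2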
# Method: as §1, §2, §3, §4, §5, §6, §7
# [8] = tested on: kidney cancer line 786-O cells; assay: CTG (CellTiter-Glo) cell viability assay, 6×6 combo matrix, 72 h, 786-O; conditions: for Relatively Cell inhibition of vehicle control(%): 786-O;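 as to all read-outs here: luminescence read-out after adding CellTiter-Glo reagent, with cells incubated at 37 °C under 5% CO2 during compound exposure, part of a ten cell line synergy study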
# Method: as §1, §2, §3, §4, §5, §6, §7
# [9] = tested on: ovarian cancer line SK-OV3 cells; assay: CTG (CellTiter-Glo) cell viability assay, 6×6 combo matrix, 72 h, SK-OV-3; conditions: SK-OV-3;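 also: luminescent signal read after CellTiter-Glo addition, cells exposed to compounds for 72 h at 37 °C under 5% CO2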
# [10] = tested on: Liver cancer line SK-HEP-1 cells; assay: CTG (CellTiter-Glo) cell viability assay, 6×6 combo matrix, 72 h, SK-Hep-1;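 also: luminescent signal read after 72 h compound exposure at 37 °C under 5% CO2, with medium-only wells serving as blank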
# [11] = cisplatin 0.048 µM only (myricetin plate)
# [12] = cisplatin 1.2 µM only (myricetin plate)
# [13] = cisplatin 6 µM only (myricetin plate)
# [14] = cisplatin 30 µM only (myricetin plate)
compound,measurement,setting,value
N.N.[Cl][Pt][Cl] [cisplatin],Relatively Cell inhibition of vehicle control(%),[1]; Cis 0.048 µM only,-11.79%
same,Relatively Cell inhibition of vehicle control(%),[1]; Cis 1.2 µM only,19.41%
same,Relatively Cell inhibition of vehicle control(%),[1]; Cis 6 µM only,49.43%
same,Relatively Cell inhibition of vehicle control(%),[1]; Cis 30 µM only,79.85%
same,Relatively Cell inhibition of vehicle control,[1]; cisplatin 0.048 µM only,-4.42%
same,Relatively Cell inhibition of vehicle control,[1]; cisplatin 1.2 µM only,16.43%
same,Relatively Cell inhibition of vehicle control,[1]; cisplatin 6 µM only,42.34%
same,Relatively Cell inhibition of vehicle control,[1]; cisplatin 30 µM only,66.79%
same,Relatively Cell inhibition of vehicle control(%),[2]; 0.048 µM cisplatin only (LB-1 0),1.63%
same,Relatively Cell inhibition of vehicle control(%),[2]; 0.048 µM cisplatin only (myricetin 0),0.23%
same,Relatively Cell inhibition of vehicle control(%),[2]; 1.2 µM cisplatin only (LB-1 0),-1.67%
same,Relatively Cell inhibition of vehicle control(%),[2]; 1.2 µM cisplatin only (myricetin 0),0.07%
same,Relatively Cell inhibition of vehicle control(%),[2]; 6 µM cisplatin only (LB-1 0),-0.49%
same,Relatively Cell inhibition of vehicle control(%),[2]; 6 µM cisplatin only (myricetin 0),11.28%
same,Relatively Cell inhibition of vehicle control(%),[2]; 30 µM cisplatin only (LB-1 0),22.74%
same,Relatively Cell inhibition of vehicle control(%),[2]; 30 µM cisplatin only (myricetin 0),36.54%
same,Relatively Cell inhibition of vehicle control(%),[3]; Cis 0.048 µM only (LB-1 0),2.74%
same,Relatively Cell inhibition of vehicle control(%),[3]; Cis 0.048 µM only (Myr 0),-4.21%
same,Relatively Cell inhibition of vehicle control(%),[3]; Cis 1.2 µM only (LB-1 0),6.85%
same,Relatively Cell inhibition of vehicle control(%),[3]; Cis 1.2 µM only (Myr 0),6.63%
same,Relatively Cell inhibition of vehicle control(%),[3]; Cis 6 µM only (LB-1 0),19.05%
same,Relatively Cell inhibition of vehicle control(%),[3]; Cis 6 µM only (Myr 0),20.8%
same,Relatively Cell inhibition of vehicle control(%),[3]; Cis 30 µM only (LB-1 0),52.83%
same,Relatively Cell inhibition of vehicle control(%),[3]; Cis 30 µM only (Myr 0),66.86%
same,inhibition rate,"[4]; 30 µM cisplatin only (LB-1 0), 72 h",65.03%
same,Relatively Cell inhibition of vehicle control(%),[4]; cisplatin 0.048 µM only (myricetin 0),1.46%
same,Relatively Cell inhibition of vehicle control(%),[4]; cisplatin 1.2 µM only (myricetin 0),0.61%
same,Relatively Cell inhibition of vehicle control(%),[4]; cisplatin 6 µM only (myricetin 0),33.19%
same,Relatively Cell inhibition of vehicle control(%),[4]; cisplatin 30 µM only (myricetin 0),77.27%
same,Relatively Cell inhibition of vehicle control(%),[4]; Cis 0.048 µM only,0.17%
same,Relatively Cell inhibition of vehicle control(%),[4]; Cis 1.2 µM only,1.57%
same,Relatively Cell inhibition of vehicle control(%),[4]; Cis 6 µM only,33.27%
same,Relatively Cell inhibition of vehicle control(%),[4]; Cis 30 µM only,65.03%
same,Relatively Cell inhibition of vehicle control(%),[5]; cisplatin 0.048 µM only,1.97%
same,Relatively Cell inhibition of vehicle control(%),[5]; [11],0.89%
same,Relatively Cell inhibition of vehicle control(%),[5]; cisplatin 1.2 µM only,11.78%
same,Relatively Cell inhibition of vehicle control(%),[5]; [12],15.05%
same,Relatively Cell inhibition of vehicle control(%),[5]; cisplatin 6 µM only,46.78%
same,Relatively Cell inhibition of vehicle control(%),[5]; [13],58.90%
same,Relatively Cell inhibition of vehicle control(%),[5]; cisplatin 30 µM only,83.20%
same,Relatively Cell inhibition of vehicle control(%),[5]; [14],86.28%
same,Relatively Cell inhibition of vehicle control(%),[6]; cisplatin 0.048 µM only (LB-1 plate),-11.07%
same,Relatively Cell inhibition of vehicle control(%),[6]; [11],-7.42%
same,Relatively Cell inhibition of vehicle control(%),[6]; cisplatin 1.2 µM only (LB-1 plate),-13.28%
same,Relatively Cell inhibition of vehicle control(%),[6]; [12],-9.21%
same,Relatively Cell inhibition of vehicle control(%),[6]; cisplatin 6 µM only (LB-1 plate),12.99%
same,Relatively Cell inhibition of vehicle control(%),[6]; [13],19.01%
same,Relatively Cell inhibition of vehicle control(%),[6]; cisplatin 30 µM only (LB-1 plate),53.09%
same,Relatively Cell inhibition of vehicle control(%),[6]; [14],61.54%
same,Relatively Cell inhibition of vehicle control(%),[7]; Cis 0.048 µM only (LB-1 0),7.78%
same,Relatively Cell inhibition of vehicle control(%),[7]; Cis 0.048 µM only (Myr 0),5.10%
same,Relatively Cell inhibition of vehicle control(%),[7]; Cis 1.2 µM only (LB-1 0),5.53%
same,Relatively Cell inhibition of vehicle control(%),[7]; Cis 1.2 µM only (Myr 0),22.76%
same,Relatively Cell inhibition of vehicle control(%),[7]; Cis 6 µM only (LB-1 0),33.22%
same,Relatively Cell inhibition of vehicle control(%),[7]; Cis 6 µM only (Myr 0),48.92%
same,Relatively Cell inhibition of vehicle control(%),[7]; Cis 30 µM only (LB-1 0),81.54%
same,Relatively Cell inhibition of vehicle control(%),[7]; Cis 30 µM only (Myr 0),90.46%
same,Relatively Cell inhibition of vehicle control(%),[8]; Cis 0.048 µM only (LB-1 0),0.45%
same,Relatively Cell inhibition of vehicle control(%),[8]; Cis 1.2 µM only (LB-1 0),5.31%
same,Relatively Cell inhibition of vehicle control(%),[8]; Cis 6 µM only (LB-1 0),60.32%
same,Relatively Cell inhibition of vehicle control(%),[8]; Cis 30 µM only (LB-1 0),90.04%
same,Relatively Cell inhibition of vehicle control,[8]; cisplatin 0.048 µM only,-1.09%
same,Relatively Cell inhibition of vehicle control,[8]; cisplatin 1.2 µM only,10.33%
same,Relatively Cell inhibition of vehicle control,[8]; cisplatin 6 µM only,67.62%
same,Relatively Cell inhibition of vehicle control,[8]; cisplatin 30 µM only,86.78%
same,Relatively Cell inhibition of vehicle control(%),[9]; Cis 0.048 µM only (LB-1 matrix),-0.61%
same,Relatively Cell inhibition of vehicle control(%),[9]; Cis 0.048 µM only (myricetin matrix),0.65%
same,Relatively Cell inhibition of vehicle control(%),[9]; Cis 1.2 µM only (LB-1 matrix),7.66%
same,Relatively Cell inhibition of vehicle control(%),[9]; Cis 1.2 µM only (myricetin matrix),17.32%
same,Relatively Cell inhibition of vehicle control(%),[9]; Cis 6 µM only (LB-1 matrix),50.05%
same,Relatively Cell inhibition of vehicle control(%),[9]; Cis 6 µM only (myricetin matrix),55.97%
same,Relatively Cell inhibition of vehicle control(%),[9]; Cis 30 µM only (LB-1 matrix),88.98%
same,Relatively Cell inhibition of vehicle control(%),[9]; Cis 30 µM only (myricetin matrix),85.03%
same,Relatively Cell inhibition of vehicle control,[10]; cisplatin 0.048 µM only (LB-1 table),-8.71%
same,Relatively Cell inhibition of vehicle control,[10]; cisplatin 0.048 µM only (myricetin table),-7.69%
same,Relatively Cell inhibition of vehicle control,[10]; cisplatin 1.2 µM only (LB-1 table),-10.98%
same,Relatively Cell inhibition of vehicle control,[10]; cisplatin 1.2 µM only (myricetin table),-2.56%
same,Relatively Cell inhibition of vehicle control,[10]; cisplatin 6 µM only (LB-1 table),29.88%
same,Relatively Cell inhibition of vehicle control,[10]; cisplatin 6 µM only (myricetin table),29.55%
same,Relatively Cell inhibition of vehicle control,[10]; cisplatin 30 µM only (LB-1 table),70.68%
same,Relatively Cell inhibition of vehicle control,[10]; cisplatin 30 µM only (myricetin table),76.71%
